Here are results for 1 compound from article PMC1322272 (2005).

The test system of this test is 35mer RNA aptamer (RNA, aptamer) GGCGUGUAGGAUAUGCUUCGGCAGAAGGACACGCC
In words: fluorescence quenching of ligand. The conditions noted are these: 50 mM NaCl, 10 mM MgCl2; 100 mM HEPES, 295 K; 1 µM ligand, RNA titrated.

Turning to `Cc1cc2nc3c(=O)[nH]c(=O)nc-3n(C[C@H](O)[C@H](O)[C@H](O)COP(=O)(O)O)c2cc1C`, the ΔGassociation was -8.84 ± 0.24 kcal/mol.
